As a reminder, the Ki is the equilibrium dissociation constant of an inhibitor or competing ligand from its target. The term half-life denotes the time in which the quantity being followed falls by half. One may read the inhibition in vivo as the change of the read-out against control, counted positive when it falls.

Activity calls are given as the source filed them. The rule behind the calls is not given here.

Data set [1] deals with Kappa-type opioid receptor (Homo sapiens, UniProt P41145). In words: Displacement of [3H]U69593 from human KOR expressed in HEK cell membranes assessed as inhibition constant incubated for 60 mins by microbeta 2 scintillation counting method. Further details: species or system Cell membrane.
Sequence of Kappa-type opioid receptor (P41145 whole entry): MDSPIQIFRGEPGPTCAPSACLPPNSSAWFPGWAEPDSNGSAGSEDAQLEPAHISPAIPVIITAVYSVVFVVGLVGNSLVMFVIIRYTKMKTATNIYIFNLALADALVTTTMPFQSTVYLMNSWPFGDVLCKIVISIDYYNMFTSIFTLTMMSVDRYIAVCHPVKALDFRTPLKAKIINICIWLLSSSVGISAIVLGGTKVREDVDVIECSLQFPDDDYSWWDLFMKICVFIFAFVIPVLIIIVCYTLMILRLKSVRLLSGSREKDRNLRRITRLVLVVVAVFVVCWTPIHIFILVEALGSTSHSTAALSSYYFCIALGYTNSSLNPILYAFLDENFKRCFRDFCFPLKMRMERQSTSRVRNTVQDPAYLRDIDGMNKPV
The next data set addresses Mu-type opioid receptor (Homo sapiens, UniProt P35372). In words: Displacement of [3H]DAMGO from human MOR expressed in CHO cell membranes assessed as inhibition constant incubated for 60 mins by microbeta 2 scintillation counting method. Set-up: species or system Cell membrane. In general terms: In a radioligand displacement assay an active substance lowers the binding of a labelled ligand.

The target of data set [2] is Delta-type opioid receptor (Homo sapiens, UniProt P41143). In words: Displacement of [3H]DADLE from human DOR expressed in CHO cell membranes assessed as inhibition constant incubated for 60 mins by microbeta 2 scintillation counting method. Set-up: species or system Cell membrane.
Sequence of Delta-type opioid receptor (P41143 whole entry): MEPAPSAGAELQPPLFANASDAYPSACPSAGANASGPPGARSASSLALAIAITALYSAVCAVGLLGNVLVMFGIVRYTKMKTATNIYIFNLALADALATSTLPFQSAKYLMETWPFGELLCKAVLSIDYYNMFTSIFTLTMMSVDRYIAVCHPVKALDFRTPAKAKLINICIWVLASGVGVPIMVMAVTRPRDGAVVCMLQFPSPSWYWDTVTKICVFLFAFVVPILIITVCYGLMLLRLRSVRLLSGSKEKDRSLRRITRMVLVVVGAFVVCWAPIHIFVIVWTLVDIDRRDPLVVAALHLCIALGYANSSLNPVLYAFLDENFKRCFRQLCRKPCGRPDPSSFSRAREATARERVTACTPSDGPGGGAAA
The species named for data set [3] is Homo sapiens. In words: Selectivity ratio of Ki for displacement of [3H]DAMGO from human MOR expressed in CHO cell membranes to Ki for displacement of [3H]U69593 from human KOR expressed in HEK cell membranes.
Data set [4] is filed under the species Homo sapiens. In words: Selectivity ratio of Ki for displacement of [3H]DADLE from human DOR expressed in CHO cell membranes to Ki for displacement of [3H]U69593 from human KOR expressed in HEK cell membranes.
The nature of data set [5]: Metabolic stability in human plasma assessed as half life at 100 uM measured upto 24 hrs by LC-MS/MS analysis. Type of data set: ADME, cell-free.
A short description of data set [6]: Metabolic stability in Beagle dog plasma assessed as half life at 100 uM measured upto 24 hrs by LC-MS/MS analysis. Type of data set: ADME, cell-free, Canis lupus familiaris. To be noted: Beagle.
Data set [7] in a line: Metabolic stability in Sprague-Dawley rat plasma assessed as half life at 100 uM measured upto 24 hrs by LC-MS/MS analysis. Type of data set: ADME, cell-free.
Data set [8] in a line: Metabolic stability in CD-1 mouse plasma assessed as half life at 100 uM measured upto 24 hrs by LC-MS/MS analysis. Type of data set: ADME, cell-free.
A short description of data set [9]: Metabolic stability in Sprague-Dawley rat liver microsomes assessed as intrinsic clearance at 100 uM measured upto 24 hrs in presence of NADPH by LC-MS/MS analysis. Type of data set: ADME, Microsome. (In general: Liver microsomes are vesicles of endoplasmic reticulum, rich in cytochrome P450 enzymes.)
A short description of data set [10]: Plasma protein binding in human assessed as bound fraction at 1 uM by LC-MS/MS analysis. Type of data set: ADME, cell-free.
Data set [11] in a line: Plasma protein binding in dog assessed as bound fraction at 1 uM by LC-MS/MS analysis. Type of data set: ADME, cell-free, Canis lupus familiaris.
The nature of data set [12]: Plasma protein binding in rat assessed as bound fraction at 1 uM by LC-MS/MS analysis. Type of data set: ADME, cell-free.
Data set [13] is described as follows: Plasma protein binding in mouse assessed as bound fraction at 1 uM by LC-MS/MS analysis. Type of data set: ADME, cell-free.
The test system of the next data set is BEND3. In words: Apparent permeability coefficient of the compound across blood brain barrier in mouse BEND3 cells at 10 ug/ml measured upto 120 mins by LC-MS/MS analysis. To be noted: dose 10.0 µg/ml. Type of data set: functional, cell-based.
Data set [14] is described as follows: In vivo inhibition of U50488-induced activation of KOR in C57BL/6 mouse assessed as reduction of occupancy on cold plate at 1 mg/kg, ip pre-treated with U50488 followed compound addition measured after 1 hr by TPPT assay (reference value: 67.28 +/- 10.8% ). Type of data set: functional.
Data set [15] relates to Rattus norvegicus. In words: Antiallodynic activity against spinal nerve ligation neuropathic pain rat model assessed as reduction in mechanical hypersensitivity at 3 mg/kg, ip measured at 1 hr by von frey test. Type of data set: functional, organism-based.
The test system of data set [16] is Rattus norvegicus. In words: Effect on emotional-affective response in spinal nerve ligation neuropathic pain rat model assessed as reduction in audible vocalizations at 3 mg/kg, ip measured at 1 hr by preamplifier based analysis. Type of data set: functional, organism-based.
The subject of data set [17] is Rattus norvegicus. In words: Effect on emotional-affective response in spinal nerve ligation neuropathic pain rat model assessed as reduction in ultrasonic vocalizations at 3 mg/kg, ip measured at 1 hr by preamplifier based analysis. Type of data set: functional, organism-based.

Sequence of Mu-type opioid receptor (P35372 whole entry): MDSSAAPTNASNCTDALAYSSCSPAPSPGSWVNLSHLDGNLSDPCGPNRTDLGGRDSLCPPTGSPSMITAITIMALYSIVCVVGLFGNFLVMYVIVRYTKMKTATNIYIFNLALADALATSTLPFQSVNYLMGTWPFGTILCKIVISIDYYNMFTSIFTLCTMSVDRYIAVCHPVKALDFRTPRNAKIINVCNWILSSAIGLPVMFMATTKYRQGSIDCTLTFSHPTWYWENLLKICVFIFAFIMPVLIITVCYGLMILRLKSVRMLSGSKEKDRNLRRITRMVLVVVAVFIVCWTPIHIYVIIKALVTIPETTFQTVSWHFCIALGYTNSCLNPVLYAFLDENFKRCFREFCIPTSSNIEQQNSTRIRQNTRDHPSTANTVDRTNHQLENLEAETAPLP

Take `COc1cccc(CC2NC(=O)CN(Cc3ccccc3)C2=O)c1I` (stereo unspecified): the Ki is 0.924 µM in data set [1], over 10 µM at Mu-type opioid receptor and over 10 µM in [2]. The Ratio Ki in the data set listed under Homo sapiens [3] and in the data set filed under Homo sapiens [4] was over 11 each time. Moreover, the half-life at 100 µM in data set [5], in data set [6], in data set [7] and in data set [8] was over 24 h throughout. In addition, the Intrinsic clearance in data set [9] is 381.8 µL/min/mg. Also, the PPB in data set [10] is reported as 91.42%; in data set [11] it was 86.15%; in [12], 91.24%; in data set [13], 85.15%. Moreover, the Pe in the data set with BEND3 was 5.07 10^-3cm/min. In addition, the inhibition in vivo at 1 mg/kg in data set [14] was 10.3%. The result in the data set on Rattus norvegicus [15], in the data set with Rattus norvegicus [16] and in the data set on Rattus norvegicus [17] was Active.

On to `NCC1(CC(=O)O)CCCCC1`, for which the result in the data set on Rattus norvegicus [16] and with Rattus norvegicus [17] was Active.

As to `COc1cccc(CC2NC(=O)CN(Cc3ccccc3)C2=O)c1C` (stereo unspecified), the Ki was 0.6 µM in [1], over 10 µM on Mu-type opioid receptor and over 10 µM in data set [2]. Further, the Ratio Ki in the data set filed under Homo sapiens [3] and in the data set listed under Homo sapiens [4] was over 17 in each case. In addition, the half-life at 100 µM in [5], in data set [6], in data set [7] and in [8] was over 24 h throughout. In addition, the Intrinsic clearance in data set [9] was found to be 337.2 µL/min/mg. The PPB in [10] was 80.46%; in data set [11] it was 86.67%; in data set [12] it was 76.34%; in data set [13] it was 86.29%. Moreover, the Pe in the data set on BEND3 is 5.99 10^-3cm/min.

Consider `COc1cc(CC2NC(=O)CN(Cc3ccccc3)C2=O)c(I)c(OC)c1` (stereo unspecified), for which the Ki in data set [1] was 0.51 µM; on Mu-type opioid receptor, over 10 µM; in [2] it was over 10 µM. For the same compound, the Ratio Ki in the data set filed under Homo sapiens [3] and in the data set listed under Homo sapiens [4] was over 20 in each case. In addition, the half-life at 100 µM in data set [5], in data set [6], in data set [7] and in data set [8] was over 24 h each time. Besides, in [9], the Intrinsic clearance was 390.5 µL/min/mg. Moreover, the PPB is 95.95% in data set [10], 89.68% in data set [11], 93.99% in data set [12] and 91.69% in [13]. Besides, the Pe in the data set on BEND3 is 9.68 10^-3cm/min.

Source of the values: ChEMBL document CHEMBL5325418, “Studies on diketopiperazine and dipeptide analogs as opioid receptor ligands” (Eur J Med Chem, 2023).
